Experimental data reported in patent US7217730B2, “Method for the use of pyranoindole derivatives to treat infection with Hepatitis C virus” (Wyeth, priority 2002, dated 2007).

Target: T1, NS5B from the BK strain (genotype 1b) (Hepatitis C virus genotype 1b, UniProt P26663)
T1 construct: NS5B from the BK strain (genotype 1b) is expressed in E. coli as a protein in which the 21 C-terminal amino acids are replaced; made in house; host or cells: E. coli
Test: Hepatitis C polymerase inhibition, NS5B BK strain, 33P-GTP filter assay
Type: biochemical
Settings: Table 1A; for inhibition at 20 µM: 20 μM compound, read-out: HCV pol % inh at 20 μM; for IC50: NS5B BK strain, read-out: HCV pol BK IC50
How it was run: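 Radiolabelled RNA synthesis was measured by filter capture and scintillation counting after EDTA stop. His-tagged, C-terminally truncated (Δ21) genotype 1b BK NS5B from E. coli, pre-exposed to compound for 15 min, copied a self-primed RNA template (~3 nM) with α-[33P]-GTP for 2 h at room temperature.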

T1 sequence (P26663 2420-2989): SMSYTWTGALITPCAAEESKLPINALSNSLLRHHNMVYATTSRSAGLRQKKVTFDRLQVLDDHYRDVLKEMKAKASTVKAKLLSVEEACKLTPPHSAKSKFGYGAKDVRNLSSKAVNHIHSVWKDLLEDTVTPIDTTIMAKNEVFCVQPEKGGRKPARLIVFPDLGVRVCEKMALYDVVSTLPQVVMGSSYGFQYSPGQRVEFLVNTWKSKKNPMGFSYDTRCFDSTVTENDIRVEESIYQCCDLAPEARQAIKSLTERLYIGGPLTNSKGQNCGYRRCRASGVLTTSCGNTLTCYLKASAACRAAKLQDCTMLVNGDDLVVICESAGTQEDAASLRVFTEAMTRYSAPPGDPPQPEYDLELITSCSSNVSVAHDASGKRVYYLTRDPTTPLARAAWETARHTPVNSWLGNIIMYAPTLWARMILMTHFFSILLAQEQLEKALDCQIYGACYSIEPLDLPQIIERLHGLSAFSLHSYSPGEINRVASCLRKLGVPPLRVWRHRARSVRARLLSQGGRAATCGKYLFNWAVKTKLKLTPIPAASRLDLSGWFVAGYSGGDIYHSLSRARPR

Compound	inhibition at 20 µM [%]	IC50 [nM]
CC(C)C1(CC(=O)O)OCCc2c1[nH]c1c(F)cc(F)c(C#N)c21 (stereo not shown) [Example 198, (5-cyano-6,8-difluoro-1-isopropyl-1,3,4,9-tetrahydropyrano[3,4-b]indol-1-yl)acetic acid]	82	> 5000
Cc1cc(F)c(Br)c2c3c([nH]c12)C(C)(CC(=O)O)OCC3 (stereo not shown) [Example 199, (5-bromo-6-fluoro-1,8-dimethyl-1,3,4,9-tetrahydropyrano[3,4-b]indol-1-yl)acetic acid]	52	> 5000
CCC1(CC(=O)O)OCCc2c1[nH]c1c(C)cc(F)c(Br)c21 (stereo not shown) [Example 200, (5-bromo-1-ethyl-6-fluoro-8-methyl-1,3,4,9-tetrahydropyrano[3,4-b]indol-1-yl)acetic acid]	83	2100
CCCC1(CC(=O)O)OCCc2c1[nH]c1c(C)cc(F)c(Br)c21 (stereo not shown) [Example 201, (5-bromo-6-fluoro-8-methyl-1-propyl-1,3,4,9-tetrahydropyrano[3,4-b]indol-1-yl)acetic acid]	82	150
Cc1cc(F)c(Br)c2c3c([nH]c12)C(CC(=O)O)(C(C)C)OCC3 (stereo not shown) [Example 202, (5-bromo-6-fluoro-1-isopropyl-8-methyl-1,3,4,9-tetrahydropyrano[3,4-b]indol-1-yl)acetic acid]	82	2900
CCCCC1(CC(=O)O)OCCc2c1[nH]c1c(C)cc(F)c(Br)c21 (stereo not shown) [Example 203, (5-bromo-1-butyl-6-fluoro-8-methyl-1,3,4,9-tetrahydropyrano[3,4-b]indol-1-yl)acetic acid]	94	190
Cc1cc(F)c(Br)c2c3c([nH]c12)C(CC(=O)O)(c1ccc(C(=O)O)cc1)OCC3 (stereo not shown) [Example 204, 4-[5-bromo-1-(carboxymethyl)-6-fluoro-8-methyl-1,3,4,9-tetrahydropyrano[3,4-b]indol-1-yl]benzoic acid]	87	1200
Cc1cc(F)c(C#N)c2c3c([nH]c12)C(C)(CC(=O)O)OCC3 (stereo not shown) [Example 205, (5-cyano-6-fluoro-1,8-dimethyl-1,3,4,9-tetrahydropyrano[3,4-b]indol-1-yl)acetic acid]	34	> 20000
CCC1(CC(=O)O)OCCc2c1[nH]c1c(C)cc(F)c(C#N)c21 (stereo not shown) [Example 206, (5-cyano-1-ethyl-6-fluoro-8-methyl-1,3,4,9-tetrahydropyrano[3,4-b]indol-1-yl)acetic acid]	84	1100
Cc1cc(F)c(C#N)c2c3c([nH]c12)C(CC(=O)O)(C(C)C)OCC3 (stereo not shown) [Example 207, (5-cyano-6-fluoro-1-isopropyl-8-methyl-1,3,4,9-tetrahydropyrano[3,4-b]indol-1-yl)acetic acid]	76	580
CCCCC1(CC(=O)O)OCCc2c1[nH]c1c(C)cc(F)c(C#N)c21 (stereo not shown) [Example 208, (1-butyl-5-cyano-6-fluoro-8-methyl-1,3,4,9-tetrahydropyrano[3,4-b]indol-1-yl)acetic acid]	88	230
Cc1cc(F)c(C#N)c2c3c([nH]c12)C(CC(=O)O)(c1ccc(C(=O)O)cc1)OCC3 (stereo not shown) [Example 209, 4-[1-(carboxymethyl)-5-cyano-6-fluoro-8-methyl-1,3,4,9-tetrahydropyrano[3,4-b]indol-1-yl]benzoic acid]	63	17900
CCC1(CC(=O)O)OCCc2c1[nH]c1c(Br)ccc(Br)c21 (stereo not shown) [Example 210, (5,8-dibromo-1-ethyl-1,3,4,9-tetrahydropyrano[3,4-b]indol-1-yl)acetic acid]	87	430
CCCC1(CC(=O)O)OCCc2c1[nH]c1c(Br)ccc(Br)c21 (stereo not shown) [Example 211, (5,8-dibromo-1-propyl-1,3,4,9-tetrahydropyrano[3,4-b]indol-1-yl)acetic acid]	89	130
